Measurements taken from patent US20230391772A1, “METHODS AND COMPOSITIONS FOR TARGETED PROTEIN DEGRADATION” (Ranok Therapeutics (Hangzhou) Co. Ltd., priority 2020, published 2023).

Key:
[1] = test system: MIA PaCa-2 human pancreatic carcinoma; assay: MIA PaCa-2 CCK-8 proliferation assay; type: cell-based; conditions: Homo sapiens, MIA PaCa-2, 72 h, MIA PaCa-2 cells
Protocol: The following cancer cell lines were employed: BT-474 human breast carcinoma (ATCC, #HTB-20); MIA PaCa-2 human pancreatic carcinoma [2 copies KRAS(G12C)](ATCC, #CRL-1420); NCI-H23 human non-small cell lung cancer [1 copy KRAS(G12C)](ATCC, #CRL-5800); NCI-H358 human non-small cell lung cancer [1 copy KRAS(G12C)](ATCC, #CRL-5807); LU65A human lung carcinoma (Pharmaron, Beijing, China). Cell lines were cultured essentially according to ATCC and Pharmaron recommendations.
Cancer Cell Line Proliferation (CCK-8) Assays
3-fold serial dilutions of each test compound were prepared ranging from 20 μM to 1.02 nM.
% Inhibition=100−(D−B)/(S−B)*100%. • S: Absorbance of cells treated with DMSO • D: Absorbance of compound-treated cells • B: Absorbance of medium with DMSO without cells

KRAS(G12C) = KRAS(G12C) (Homo sapiens, UniProt P01116, G12C); assay: KRAS(G12C)/SOS1 homogeneous time-resolved fluorescence (HTRF) assay; parameters: purchased Cisbio 63ADK000CB16PEG; conditions: absence of GTP, 4° C. for 3 hr, read-out: KRAS (G12C) binding
Protocol: KRAS(G12C)/SOS1 Homogeneous Time-Resolved Fluorescence (HTRF) Assay
Binding of test compounds to KRAS(G12C) protein, which in turn blocks KRAS(G12C) interaction with the SOS1 protein, was measured in the absences of GTP by homogeneous time-resolved fluorescence (HTRF) using the KRAS-G12C/SOS1 Binding Assay Kit (Cisbio, #63ADK000CB16PEG), following the manufacturer's instructions, except as noted. 3-fold serial dilutions of each test compound were prepared ranging from […] to 1.02 nM. The test compound was mixed and incubated with reaction components, incubated in a sealed plate at 4° C. for 3 hr and fluorescence was measured using a PerkinElmer Envision plate reader.

HSP90a protein = target: T1, HSP90a protein (Homo sapiens, UniProt P07900); assay: HSP90α-binding fluorescent polarization (FP) assay, BODIPY-labeled RNK04010 probe; conditions: FP competition with RNK04010 (BODIPY-labeled), 5 nM, 300 min at 25° C.
T1 construct: purchased BPS Bioscience 50298
Protocol: HSP90α-Binding Fluorescent Polarization (FP) Assay
Binding of test compounds to HSP90a protein was measured by fluorescent polarization (FP) using the HSP90a (N-terminal) Assay Kit (BPS Bioscience, #50298), following the manufacturer's instructions, except as noted. Fluorescently labeled HSP90-binding compounds, either the provided FITC-geldanamycin (5 nM final concentration) or RNK04010, a triazolone-based HSP90 binding small molecule labeled with BODIPY through a piperizine-phenyl linker (5 nM final concentration) were employed. A 2.5-fold serial dilution of each test compound ranging from 20 μM to 5.2 nM was assayed for binding to HSP90a. After the final step of adding HSP90a protein to each assay well, plates were mixed by brief shaking, incubated at 25° C. for 120 min for FITC-geldanamycin or 300 min for RNK04010, and fluorescence was measured using a PerkinElmer EnVision Plate Reader.

KRAS(G12C), sequence (P01116 1-188 isoform P01116-2 G12C): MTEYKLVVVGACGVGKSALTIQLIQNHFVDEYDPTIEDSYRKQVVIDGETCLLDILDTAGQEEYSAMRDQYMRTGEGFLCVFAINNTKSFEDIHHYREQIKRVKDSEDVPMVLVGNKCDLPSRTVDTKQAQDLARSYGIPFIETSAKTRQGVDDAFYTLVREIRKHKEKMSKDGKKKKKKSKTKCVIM

EC50 [1] | IC50 (KRAS(G12C)) | IC50 (HSP90a protein) | Compound
100 to 1000 nM | < 100 nM | – | C=CC(=O)N1CCN(c2nc(OCCN3CCC(C(=O)N4CCN(Cc5ccc(-n6c(C(=O)NC)nnc6-c6cc(C(C)C)c(O)cc6O)cc5)CC4)CC3)nc3c2CCN(c2cccc4cccc(Cl)c24)C3)C[C@@H]1CC#N [Compound 239, (S)-4-(4-((4-(1-(2-((4-(4-acryloyl-3-(cyanomethyl)piperazin-1-yl)-7-(8-chloronaphthalen-1-yl)-5,6,7,8-tetrahydropyrido[3,4-d]pyrimidin-2-yl)oxy)ethyl)piperidine-4-carbonyl)piperazin-1-yl)methyl)phenyl)-5-(2,4-dihydroxy-5-isopropylphenyl)-N-methyl-4H-1,2,4-triazole-3-carboxamide]
> 1000 nM | < 100 nM | – | C=CC(=O)N1CCN(c2nc(OCCN3CCN(C4CCN(Cc5ccc(-n6c(O)nnc6-c6cc(C)c(O)cc6O)cc5)CC4)CC3)nc3c2CCN(c2cccc4cccc(Cl)c24)C3)C[C@@H]1CC#N [Compound 267, (S)-2-(1-acryloyl-4-(7-(8-chloronaphthalen-1-yl)-2-(2-(4-(1-(4-(3-(2,4-dihydroxy-5-methylphenyl)-5-hydroxy-4H-1,2,4-triazol-4-yl)benzyl)piperidin-4-yl)piperazin-1-yl)ethoxy)-5,6,7,8-tetrahydropyrido[3,4-d]pyrimidin-4-yl)piperazin-2-yl)acetonitrile]
100 to 1000 nM | – | < 100 nM | C=CC(=O)N1CCN(c2nc(OC[C@@H]3CC[C@H](C(=O)N4CCN(C(=O)C5CCN(Cc6ccc(-n7c(O)nnc7-c7cc(C(C)C)c(O)cc7O)cc6)CC5)CC4)N3C)nc3c2CCN(c2cccc4cccc(Cl)c24)C3)C[C@@H]1CC#N [Compound 305, 2-[(2S)-4-[7-(8-chloronaphthalen-1-yl)-2-{[(2S,5R)-5-{4-[1-({4-[3-(2,4-dihydroxy-5-isopropylphenyl)-5-hydroxy-1,2,4-triazol-4-yl]phenyl}methyl)piperidine-4-carbonyl]piperazine-1-carbonyl}-1-methylpyrrolidin-2-yl]methoxy}-5H,6H,8H-pyri-do[3,4-d]pyrimidin-4-yl]-1-(prop-2-enoyl)piperazin-2-yl]acetonitrile]
100 to 1000 nM | < 100 nM | – | C=CC(=O)N1CCN(c2nc(OCCN3CCC(C(=O)N4CCN(CCNC(=O)c5nnc(-c6cc(C(C)C)c(O)cc6O)n5-c5ccccc5)CC4)CC3)nc3c2CCN(c2cccc4cccc(Cl)c24)C3)C[C@@H]1CC#N [Compound 243, (S)—N-(2-(4-(1-(2-((4-(4-acryloyl-3-(cyanomethyl)piperazin-1-yl)-7-(8-chloronaphthalen-1-yl)-5,6,7,8-tetrahydropyrido[3,4-d]pyrimidin-2-yl)oxy)ethyl)piperidine-4-carbonyl)piperazin-1-yl)ethyl)-5-(2,4-dihydroxy-5-isopropylphenyl)-4-phenyl-4H-1,2,4-triazole-3-carboxamide]
> 1000 nM | 100 to 1000 nM | – | C=CC(=O)N1CCN(c2nc(OCCN3CCC(C(=O)N4CCC(CN5CCC(Cc6ccc(-n7c(O)nnc7-c7cc(O)c(C(C)C)cc7O)cc6)CC5)CC4)CC3)nc3c2CCN(c2cccc4cccc(Cl)c24)C3)C[C@@H]1CC#N [Compound 238, (S)-2-(1-acryloyl-4-(7-(8-chloronaphthalen-1-yl)-2-(2-(4-(4-((4-(4-(3-(2,5-dihydroxy-4-isopropylphenyl)-5-hydroxy-4H-1,2,4-triazol-4-yl)benzyl)piperidin-1-yl)methyl)piperidine-1-carbonyl)piperidin-1-yl)ethoxy)-5,6,7,8-tetrahydropyrido[3,4-d]pyrimidin-4-yl)piperazin-2-yl)acetonitrile]
100 to 1000 nM | < 100 nM | – | C=CC(=O)N1CCN(c2nc(OCCN3CCC(N4CCN(C(=O)C5CCN(Cc6ccc(-n7c(C(N)=O)nnc7-c7cc(C(C)C)c(O)cc7O)cc6)CC5)CC4)CC3)nc3c2CCN(c2cccc4cccc(Cl)c24)C3)C[C@@H]1CC#N [Compound 249, (S)-4-(4-((4-(4-(1-(2-((4-(4-acryloyl-3-(cyanomethyl)piperazin-1-yl)-7-(8-chloronaphthalen-1-yl)-5,6,7,8-tetrahydropyrido[3,4-d]pyrimidin-2-yl)oxy)ethyl)piperidin-4-yl)piperazine-1-carbonyl)piperidin-1-yl)methyl)phenyl)-5-(2,4-dihydroxy-5-isopropylphenyl)-4H-1,2,4-triazole-3-carboxamide]
> 1000 nM | – | < 100 nM | C=C(F)C(=O)N1CCN(c2nc(OCCN3CCN(C(=O)c4ccc(-n5c(O)nnc5-c5cc(C(C)C)c(O)cc5O)cc4)CC3)nc3c2CCN(c2cccc4cccc(Cl)c24)C3)C[C@@H]1CC#N [Compound 226]
– | < 100 nM | < 100 nM | C=CC(=O)N1CCN(c2nc(OC[C@@H]3CC[C@H](C(=O)N4CCN(C(=O)C5CCN(Cc6ccc(-n7c(O)nnc7-c7cc(C(C)C)c(O)cc7O)cc6)CC5)CC4)N3C)nc3c2CCN(c2cccc4cccc(Cl)c24)C3)C[C@@H]1CC#N [Compound 341, 2-[(2S)-4-[7-(8-chloronaphthalen-1-yl)-2-{[(2S,5R)-5-{4-[1-({4-[3-(2,4-dihydroxy-5-isopropylphenyl)-5-hydroxy-1,2,4-triazol-4-yl]phenyl}methyl)piperidine-4-carbonyl]piperazine-1-carbonyl}-1-methylpyrrolidin-2-yl]methoxy}-5H,6H,8H-pyri-do[3,4-d]pyrimidin-4-yl]-1-(prop-2-enoyl)piperazin-2-yl]acetonitrile]
100 to 1000 nM | – | < 100 nM | C=CC(=O)N1CCN(c2nc(OC[C@@H]3CN(C(=O)C4CCN(Cc5ccc(-n6c(C(=O)NCC(F)(F)F)nnc6-c6cc(C(C)C)c(O)cc6O)cc5)CC4)CCN3C)nc3c2CCN(c2cccc4cccc(Cl)c24)C3)C[C@@H]1CC#N [Compound 199, 4-(4-((4-((S)-3-(((4-((S)-4-acryloyl-3-(cyanomethyl)piperazin-1-yl)-7-(8-chloronaphthalen-1-yl)-5,6,7,8-tetrahydropyrido[3,4-d]pyrimidin-2-yl)oxy)methyl)-4-methylpiperazine-1-carbonyl)piperidin-1-yl)methyl)phenyl)-5-(2,4-dihydroxy-5-isopropylphenyl)-N-(2,2,2-trifluoroethyl)-4H-1,2,4-triazole-3-carboxamide]
100 to 1000 nM | 100 to 1000 nM | – | C=CC(=O)N1CCN(c2nc(OC[C@@H]3CCN3C(=O)C3CCN(Cc4ccc(-n5c(C(N)=O)nnc5-c5cc(C(C)C)c(O)cc5O)cc4)CC3)nc3c2CCN(c2cccc4cccc(Cl)c24)C3)C[C@@H]1CC#N [Compound 190, 4-(4-((4-((S)-2-(((4-((S)-4-acryloyl-3-(cyanomethyl)piperazin-1-yl)-7-(8-chloronaphthalen-1-yl)-5,6,7,8-tetrahydropyrido[3,4-d]pyrimidin-2-yl)oxy)methyl)azetidine-1-carbonyl)piperidin-1-yl)methyl)phenyl)-5-(2,4-dihydroxy-5-isopropylphenyl)-4H-1,2,4-triazole-3-carboxamide]
100 to 1000 nM | < 100 nM | – | C=CC(=O)N1CCN(c2nc(OCCN3CCC(C(=O)N4CCN(Cc5ccc(-n6c(C(=O)NCCN7CCN(S(C)(=O)=O)CC7)nnc6-c6cc(C(C)C)c(O)cc6O)cc5)CC4)CC3)nc3c2CCN(c2cccc4cccc(Cl)c24)C3)C[C@@H]1CC#N [Compound 242, (S)-4-(4-((4-(1-(2-((4-(4-acryloyl-3-(cyanomethyl)piperazin-1-yl)-7-(8-chloronaphthalen-1-yl)-5,6,7,8-tetrahydropyrido[3,4-d]pyrimidin-2-yl)oxy)ethyl)piperidine-4-carbonyl)piperazin-1-yl)methyl)phenyl)-5-(2,4-dihydroxy-5-isopropylphenyl)-N-(2-(4-(methylsulfonyl)piperazin-1-yl)ethyl)-4H-1,2,4-triazole-3-carboxamide]
> 1000 nM | – | 100 to 1000 nM | C=CC(=O)N1CCN(c2nc(OC[C@@H]3CCN(C(=O)C4CCN(Cc5ccc(-n6c(O)nnc6-c6cc(C)c(O)cc6O)cc5)CC4)C3)nc3c2CCN(c2cccc4cccc(Cl)c24)C3)C[C@@H]1CC#N [Compound 180, 2-((S)-1-acryloyl-4-(7-(8-chloronaphthalen-1-yl)-2-(((R)-1-(1-(4-(3-(2,4-dihydroxy-5-methylphenyl)-5-hydroxy-4H-1,2,4-triazol-4-yl)benzyl)piperidine-4-carbonyl)pyrrolidin-3-yl)methoxy)-5,6,7,8-tetrahydropyrido[3,4-d]pyrimidin-4-yl)piperazin-2-yl)acetonitrile]
